Measured values from US20210317140A1, “Heterocyclic Compounds and Methods of Use” (MEDIVATION TECHNOLOGIES, INC, priority 2013, published 2021).

Assays:
Assay type in all cases: biochemical
[1] = target: T1, TEC (Homo sapiens, UniProt P42680); assay: TEC kinase profiling (BTK protocol); details: for TEC @ 0.3 μM (% Inh): 0.3 μM compound; for IC50: 10 dose IC50
T1 construct: purchased Reaction Biology Corporation
T1 sequence (P42680 1-631): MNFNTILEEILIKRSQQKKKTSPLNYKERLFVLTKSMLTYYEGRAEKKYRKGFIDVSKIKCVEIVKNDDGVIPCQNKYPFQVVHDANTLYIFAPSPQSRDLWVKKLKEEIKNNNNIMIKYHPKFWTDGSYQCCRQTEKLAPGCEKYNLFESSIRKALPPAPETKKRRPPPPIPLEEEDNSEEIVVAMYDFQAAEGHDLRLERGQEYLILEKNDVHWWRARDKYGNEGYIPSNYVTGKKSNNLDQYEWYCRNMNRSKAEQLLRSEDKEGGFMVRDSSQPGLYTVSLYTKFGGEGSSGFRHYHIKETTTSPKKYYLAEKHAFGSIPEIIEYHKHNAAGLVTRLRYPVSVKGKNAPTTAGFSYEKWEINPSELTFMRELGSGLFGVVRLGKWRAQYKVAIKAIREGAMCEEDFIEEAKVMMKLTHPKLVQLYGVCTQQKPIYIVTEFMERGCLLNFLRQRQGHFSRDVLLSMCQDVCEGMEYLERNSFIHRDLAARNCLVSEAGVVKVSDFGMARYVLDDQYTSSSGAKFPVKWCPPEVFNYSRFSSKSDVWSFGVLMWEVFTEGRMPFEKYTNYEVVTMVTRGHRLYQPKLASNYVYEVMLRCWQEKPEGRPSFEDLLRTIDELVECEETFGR
Protocol: BTK assay: In vitro profiling protein kinases was performed using the “HotSpot” assay platform. Briefly, specific kinase/substrate pairs along with required cofactors were prepared in reaction buffer. Compounds were prepared as 10 mM stock solutions in DMSO. Compounds were delivered into the reaction, followed 15-20 minutes later by addition of a mixture of ATP (Sigma, St. Louis Mo.) and ^33P ATP (Perkin Elmer, Waltham Mass.) to a final concentration of 10 μM. […] IC50 values and curve fits were obtained using Prism (GraphPad Software). Buffer Conditions: 20 mM Hepes (pH 7.5), 10 mM MgCl2, 1 mM EGTA, 0.02% Brij35, 0.02 mg/mL BSA, 0.1 mM Na3VO4, 2 mM DTT, 1% DMSO.

[2] = target: T2, PI3Kδ (Homo sapiens, UniProt O00329); assay: PI3Kδ kinase assay (HTRF, PIP3 detection); details: for PI3Kδ @ 0.1 μM (% Inh): 0.1 μM compound; for IC50: 10 dose IC50, 10 μM ATP; for PI3Kδ @ 1 μM (% Inh): 1 μM compound
T2 construct: purchased Reaction Biology Corporation
T2 sequence (O00329 whole entry): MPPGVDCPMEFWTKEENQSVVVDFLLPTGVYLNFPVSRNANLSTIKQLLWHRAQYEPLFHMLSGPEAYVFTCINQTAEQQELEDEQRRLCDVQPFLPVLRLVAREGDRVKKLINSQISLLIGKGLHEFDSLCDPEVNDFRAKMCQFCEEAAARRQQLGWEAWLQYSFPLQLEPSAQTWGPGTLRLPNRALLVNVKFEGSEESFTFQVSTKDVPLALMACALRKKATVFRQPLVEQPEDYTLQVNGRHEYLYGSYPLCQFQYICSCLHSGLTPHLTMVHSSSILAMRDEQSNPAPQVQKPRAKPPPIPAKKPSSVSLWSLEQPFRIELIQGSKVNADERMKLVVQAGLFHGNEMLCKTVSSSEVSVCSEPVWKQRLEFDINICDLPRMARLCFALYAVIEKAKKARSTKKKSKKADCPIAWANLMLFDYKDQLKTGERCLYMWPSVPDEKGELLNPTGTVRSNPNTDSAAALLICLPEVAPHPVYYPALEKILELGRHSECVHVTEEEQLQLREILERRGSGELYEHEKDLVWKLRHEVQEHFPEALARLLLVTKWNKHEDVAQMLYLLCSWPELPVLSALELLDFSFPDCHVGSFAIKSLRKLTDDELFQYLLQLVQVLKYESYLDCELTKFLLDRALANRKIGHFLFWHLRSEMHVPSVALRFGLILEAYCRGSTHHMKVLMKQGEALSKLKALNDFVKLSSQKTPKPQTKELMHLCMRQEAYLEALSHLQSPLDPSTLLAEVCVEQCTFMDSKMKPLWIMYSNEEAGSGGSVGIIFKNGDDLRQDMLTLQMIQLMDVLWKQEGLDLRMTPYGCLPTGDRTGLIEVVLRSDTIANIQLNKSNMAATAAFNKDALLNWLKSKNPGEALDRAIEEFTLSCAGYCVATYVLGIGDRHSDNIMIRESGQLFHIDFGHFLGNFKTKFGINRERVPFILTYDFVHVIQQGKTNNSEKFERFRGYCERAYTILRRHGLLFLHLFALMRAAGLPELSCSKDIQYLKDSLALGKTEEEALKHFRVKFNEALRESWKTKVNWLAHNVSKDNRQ
T2 sequence (P27986 whole entry partner): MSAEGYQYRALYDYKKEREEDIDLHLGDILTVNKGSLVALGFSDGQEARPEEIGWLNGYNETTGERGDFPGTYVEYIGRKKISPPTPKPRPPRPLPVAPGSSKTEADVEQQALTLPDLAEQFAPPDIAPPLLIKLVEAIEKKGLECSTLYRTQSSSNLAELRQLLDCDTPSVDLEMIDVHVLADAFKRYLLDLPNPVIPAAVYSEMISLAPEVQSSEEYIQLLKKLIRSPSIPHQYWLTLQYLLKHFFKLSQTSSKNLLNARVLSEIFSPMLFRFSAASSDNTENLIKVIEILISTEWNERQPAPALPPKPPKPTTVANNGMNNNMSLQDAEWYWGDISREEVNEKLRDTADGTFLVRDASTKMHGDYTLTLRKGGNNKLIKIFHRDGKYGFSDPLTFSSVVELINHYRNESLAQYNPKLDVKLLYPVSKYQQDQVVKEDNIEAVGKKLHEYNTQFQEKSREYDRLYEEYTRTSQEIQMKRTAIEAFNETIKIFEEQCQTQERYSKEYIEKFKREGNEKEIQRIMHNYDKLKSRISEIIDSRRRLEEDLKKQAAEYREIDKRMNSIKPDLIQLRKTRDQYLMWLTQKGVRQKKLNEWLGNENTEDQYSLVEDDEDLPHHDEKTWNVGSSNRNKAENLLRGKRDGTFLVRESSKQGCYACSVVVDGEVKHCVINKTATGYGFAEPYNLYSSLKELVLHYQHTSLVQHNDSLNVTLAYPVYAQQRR
Procedure, shortened: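 PIP3 formation read by loss of energy transfer as it displaces biotin-PIP3 from a Eu anti-GST/GST-PH/streptavidin-APC complex, calibrated against PIP3 standards.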

[3] = target: T3, PI3Kγ (Homo sapiens, UniProt P48736); assay: PI3Kγ isoform profiling (PI3Kδ protocol); details: for PI3Kγ @ 0.3 μM (% Inh): 0.3 μM compound; for IC50: 10 dose IC50
T3 construct: purchased Reaction Biology Corporation
T3 sequence (P48736 whole entry, canonical isoform): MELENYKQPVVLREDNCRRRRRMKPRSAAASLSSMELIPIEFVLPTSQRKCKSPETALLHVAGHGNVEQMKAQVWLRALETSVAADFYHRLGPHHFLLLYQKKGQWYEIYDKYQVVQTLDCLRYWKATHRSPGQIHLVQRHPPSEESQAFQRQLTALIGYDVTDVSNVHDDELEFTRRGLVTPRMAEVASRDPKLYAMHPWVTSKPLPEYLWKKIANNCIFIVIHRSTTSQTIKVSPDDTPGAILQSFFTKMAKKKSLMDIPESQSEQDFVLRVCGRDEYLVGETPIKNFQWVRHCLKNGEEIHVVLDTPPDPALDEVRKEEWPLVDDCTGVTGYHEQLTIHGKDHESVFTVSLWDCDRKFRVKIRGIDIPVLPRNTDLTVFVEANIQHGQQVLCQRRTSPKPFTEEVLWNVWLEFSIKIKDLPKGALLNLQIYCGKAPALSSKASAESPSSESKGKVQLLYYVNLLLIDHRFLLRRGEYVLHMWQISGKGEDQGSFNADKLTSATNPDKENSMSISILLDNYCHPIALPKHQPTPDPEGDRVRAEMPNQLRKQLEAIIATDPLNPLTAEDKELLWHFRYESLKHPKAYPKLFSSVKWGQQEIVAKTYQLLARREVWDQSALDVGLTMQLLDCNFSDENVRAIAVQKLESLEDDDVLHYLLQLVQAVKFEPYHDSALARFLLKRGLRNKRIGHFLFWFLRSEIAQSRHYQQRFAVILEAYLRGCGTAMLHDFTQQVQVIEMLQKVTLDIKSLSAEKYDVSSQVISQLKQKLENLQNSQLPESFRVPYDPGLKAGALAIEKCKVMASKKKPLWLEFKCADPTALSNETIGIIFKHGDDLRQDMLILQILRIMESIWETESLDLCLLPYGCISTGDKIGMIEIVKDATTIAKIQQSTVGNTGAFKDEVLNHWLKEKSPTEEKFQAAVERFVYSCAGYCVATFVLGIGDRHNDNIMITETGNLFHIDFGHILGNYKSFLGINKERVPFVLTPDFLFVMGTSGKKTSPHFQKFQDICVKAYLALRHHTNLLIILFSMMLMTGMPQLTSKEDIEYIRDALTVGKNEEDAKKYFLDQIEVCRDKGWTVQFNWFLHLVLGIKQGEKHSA
Source text: PI3Kδ assay: The PIP3 product is detected by displacement of biotin-PIP3 from an energy transfer complex consisting of Europium labeled anti-GST monoclonal antibody, a GST-tagged pleckstrin homology (PH) domain, biotinylated PIP3 and Streptavidin-Allophycocyanin (APC). Excitation of Europium in the complex results in an energy transfer to the APC and a fluorescent emission at 665 nm. The PIP3 product formed by PI 3-Kinase(h) activity displaces biotin-PIP3 from the complex resulting in a loss of energy transfer and thus a decrease in signal. This is a 3-step reaction: First, the kinase reaction with PIP2 substrate is carried out in the presence of ATP (10 μM), and the reaction is quenched with stop Solution, and then finally detect by adding Detection Mixture followed by incubation (10 min). Reaction procedure: 1) Prepare substrate in freshly prepared Reaction Buffer. 2) Deliver kinase into the substrate solution and gently mix. 3) Deliver compounds in 100% DMSO (1 μM) into the kinase reaction mixture by Acoustic technology (Echo550; nanoliter range), incubate for 10 min at RT. 4) Deliver ATP into the reaction mixture to initiate the reaction. 5) Incubate for 30 min at 30° C. 6) Quench the reaction with Stop Solution. 7) Add Detection Mixture, and incubate for overnight. 8) Measure HTRF: Ex=320 nm, ratio of Em=615 nm and Em=665 nm. The emission ratio is converted into μM PIP3 production based on PIP3 standard curves. The nonlinear regression to obtain the standard curve and IC50 values are performed using Graphpad Prism software. Assay Buffer: HEPES 50 mM (pH7.0), NaN3 0.02%, BSA 0.01%, Orthovanadate 0.1 mM, 1% DMSO. Detection buffer: HEPES 10 mM (pH7.0), BSA 0.02%, KF 0.16 M, EDTA 4 mM. Substrate: 10 μM PIP2 substrate (PI(4,5)P2).
Compounds of the invention were profiled in a 10 dose IC50 panel against PI3Kα, PI3Kβ, and PI3Kγ kinases, provided by Reaction Biology Corporation, applied to the PI3Kδ protocol provided in Example B1.

Row | Compound | TEC @ 0.3 μM (% Inh) [1] [% Inh] | PI3Kδ @ 0.01 μM (% Inh) ([2]; 0.01 μM compound, 10 μM ATP) | PI3Kδ @ 0.1 μM (% Inh) ([2]; 10 μM ATP) | IC50 [2] [nM] | PI3Kγ @ 0.3 μM (% Inh) [3] [% Inh] | PI3Kδ @ 1 μM (% Inh) ([2]; 10 μM ATP) | IC50 [1] [nM] | IC50 [3] [nM]
1 | Nc1ncnc2c1c(-c1ccc(Cl)c(O)c1F)nn2C1Cc2ccccc2C1 [Compound No. 100, 3-[4-amino-1-(2,3-dihydro-1H-inden-2-yl)-1H-pyrazolo[3,4-d]pyrimidin-3-yl]-6-chloro-2-fluorophenol] | 102.76 | 29.01 | 71.71 | 44.7 | 57.52 |  |  | 
2 | Nc1ncnc2c1c(-c1ccc(Cl)c(O)c1)nn2C1Cc2ccccc2C1 [Compound No. 56, 5-[4-amino-1-(2,3-dihydro-1H-inden-2-yl)-1H-pyrazolo[3,4-d]pyrimidin-3-yl]-2-chlorophenol] | 61.02 |  | 69.44 | 33.2 | 62.17 | 99.12 |  | 
3 | Nc1ncnc2c1c(-c1cc(O)c(F)c(F)c1)nn2C1Cc2ccccc2C1 [Compound No. 81, 5-[4-amino-1-(2,3-dihydro-1H-inden-2-yl)-1H-pyrazolo[3,4-d]pyrimidin-3-yl]-2,3-difluorophenol] | 71.22 |  | 87.14 | 3.5 | 68.03 | 91.62 |  | 
4 | Nc1ncnc2c1c(-c1cc(O)c(F)c(C(F)(F)F)c1)nn2C1Cc2ccccc2C1 [Compound No. 102, 5-[4-amino-1-(2,3-dihydro-1H-inden-2-yl)-1H-pyrazolo[3,4-d]pyrimidin-3-yl]-2-fluoro-3-(trifluoromethyl)phenol] | −3.89 |  | 93.99 | 2.5 | 57.81 | 100.0 |  | 
5 | Nc1ncnc2c1c(-c1ccc(F)c(O)c1)nn2C1Cc2ccccc2C1 [Compound No. 29, 5-(4-amino-1-indan-2-yl-pyrazolo[3,4-d]pyrimidin-3-yl)-2-fluoro-phenol] |  |  | 61.73 | 61.3 |  |  | 20.5 | 196
6 | Nc1ncnc2c1c(-c1ccc(F)c(O)c1)nn2C1CCc2ccccc2C1 (single isomer, unassigned) [Compound No. 26a, 5-(4-amino-1-(1,2,3,4-tetrahydronaphthalen-2-yl)-1H-pyrazolo[3,4-d]pyrimidin-3-yl)-2-fluorophenol] |  |  | 39.35 | 114 |  |  | 49.3 | 405
7 | COc1cc(-c2nn(C3Cc4ccccc4C3)c3ncnc(N)c23)ccc1C [Compound No. 49, 1-(2,3-dihydro-1H-inden-2-yl)-3-(3-methoxy-4-methylphenyl)-1H-pyrazolo[3,4-d]pyrimidin-4-amine] | 44.68 |  | 57.87 | 119 | 30.41 | 89.73 |  | 
8 | Nc1ncnc2c1c(-c1cc(O)cc(F)c1)nn2C1Cc2ccccc2C1 [compound 3, 3-(4-amino-1-(2,3-dihydro-1H-inden-2-yl)-1H-pyrazolo[3,4-d]pyrimidin-3-yl)-5-fluorophenol] |  |  |  | 7.9 |  |  | 182 | 53.5
9 | Nc1ncnc2c1c(-c1ccc(F)c(O)c1)nn2C1CCc2ccccc2C1 (single isomer, unassigned) [Compound No. 26b, 5-(4-amino-1-(1,2,3,4-tetrahydronaphthalen-2-yl)-1H-pyrazolo[3,4-d]pyrimidin-3-yl)-2-fluorophenol] |  |  | 47.94 | 55.2 |  |  | 82.1 | 455
10 | Nc1ncnc2c1c(-c1ccc(Br)c(O)c1)nn2C1Cc2ccccc2C1 [compound 2, 5-(4-amino-1-(2,3-dihydro-1H-inden-2-yl)-1H-pyrazolo[3,4-d]pyrimidin-3-yl)-2-bromophenol] |  |  |  |  |  |  | 100 | 
